{"source": "patent EP1466611A1", "about": "“Use of HCG derived peptides in the treatment of iatrogenic diseases” (Biotempt B.V., priority 2003, dated 2004)", "tested_on": "NF-kB", "assay": "NF-kB translocation by EMSA on nuclear extracts of RAW 264.7 mouse macrophages, basal and LPS induced (second experiment)", "assay_type": "cell-based", "conditions": "RAW264.7 cells, LPS in combination with peptide, 30 minutes of incubation, peptide 1 microgr/ml or 1 mg/ml", "procedure": "RAW 264.7 mouse macrophages were cultured in DMEM, containing 10% or 2% FBS, penicillin, streptomycin and glutamine, at 37 °C, 5% CO2. […] After 30 minutes of incubation plates were centrifuged and cells were collected for nuclear extracts. Nuclear extracts and EMSA were prepared according to Schreiber et al. Cells were collected in a tube and centrifuged for 5 minutes at 2000 rpm (rounds per minute) at 4°C (Universal 30 RF, Hettich Zentrifuges). The pellet was washed with ice-cold Tris buffered saline (TBS pH 7.4) and resuspended in 400 μl of a hypotonic buffer A (10 mM HEPES pH 7.9, 10 mM KCl, 0.1 mM EDTA, 0.1 mM EGTA, 1 mM DTT, 0.5 mM PMSF and protease inhibitor cocktail (Complete^TM Mini, Roche) and left on ice for 15 minutes. Twenty five micro litre 10% NP-40 was added and the sample was centrifuged (2 minutes, 4000 rpm, 4°C). The supernatant (cytoplasmic fraction) was collected and stored at -70°C. […] The samples were left to shake at 4°C for at least 60 minutes. Finally the samples were centrifuged and the supernatant (nucleic fraction) was stored at -70°C. Bradford reagent (Sigma) was used to determine the final protein concentration in the extracts. […] Hundred pico mol sense and antisense oligo were annealed and labelled with […] using T4 polynucleotide kinase according to the manufacture's instructions (Promega, Madison, WI). […]", "note": "Ends that are not written are not given here."}
{"substance": "circular LQGVLPALPQVVC (also: circular / cyclised, mode of ring closure not given here) [NFkappaB down-regulating peptide]", "values": [{"measurement": "LPS induced translocation of NF-kB", "result": "inhibition"}]}
